Results: publication PMC8843742, “Eltrombopag inhibits TET dioxygenase to contribute to hematopoietic stem cell expansion in aplastic anemia” (The Journal of Clinical Investigation, 2022)

Assays:
TET1 = molecular target: T1, TET1 (Homo sapiens, UniProt Q8NFU7); assay: 5hmC ELISA with recombinant protein; assay type: biochemical
T1 construct: recombinant catalytic domain (Epigentek, E12002-1)
T1 sequence (Q8NFU7 1418-2136 limits assumed): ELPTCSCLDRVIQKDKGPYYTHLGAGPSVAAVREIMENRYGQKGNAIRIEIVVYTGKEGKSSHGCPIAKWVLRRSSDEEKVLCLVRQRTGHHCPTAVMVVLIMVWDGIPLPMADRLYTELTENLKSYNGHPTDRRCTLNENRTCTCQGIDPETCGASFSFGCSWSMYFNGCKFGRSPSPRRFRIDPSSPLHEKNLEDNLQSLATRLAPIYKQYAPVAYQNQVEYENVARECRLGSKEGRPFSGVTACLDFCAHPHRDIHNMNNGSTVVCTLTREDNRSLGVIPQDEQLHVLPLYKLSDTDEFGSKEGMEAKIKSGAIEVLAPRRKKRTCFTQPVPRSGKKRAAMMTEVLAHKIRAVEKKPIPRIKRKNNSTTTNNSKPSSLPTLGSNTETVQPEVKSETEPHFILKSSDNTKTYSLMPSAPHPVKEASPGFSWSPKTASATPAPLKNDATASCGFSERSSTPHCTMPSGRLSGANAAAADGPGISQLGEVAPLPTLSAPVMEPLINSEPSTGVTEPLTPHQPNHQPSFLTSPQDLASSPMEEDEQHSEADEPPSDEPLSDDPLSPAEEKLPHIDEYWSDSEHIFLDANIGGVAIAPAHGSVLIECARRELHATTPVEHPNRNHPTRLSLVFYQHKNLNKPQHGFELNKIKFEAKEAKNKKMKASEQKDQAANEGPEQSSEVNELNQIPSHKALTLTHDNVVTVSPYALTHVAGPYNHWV

TET3 = molecular target: T2, TET3 (Homo sapiens, UniProt O43151); assay: 5hmC ELISA with recombinant protein; assay type: biochemical
T2 construct: recombinant catalytic domain (BPS Bioscience, 50163)
T2 sequence (O43151 850-1795 limits assumed): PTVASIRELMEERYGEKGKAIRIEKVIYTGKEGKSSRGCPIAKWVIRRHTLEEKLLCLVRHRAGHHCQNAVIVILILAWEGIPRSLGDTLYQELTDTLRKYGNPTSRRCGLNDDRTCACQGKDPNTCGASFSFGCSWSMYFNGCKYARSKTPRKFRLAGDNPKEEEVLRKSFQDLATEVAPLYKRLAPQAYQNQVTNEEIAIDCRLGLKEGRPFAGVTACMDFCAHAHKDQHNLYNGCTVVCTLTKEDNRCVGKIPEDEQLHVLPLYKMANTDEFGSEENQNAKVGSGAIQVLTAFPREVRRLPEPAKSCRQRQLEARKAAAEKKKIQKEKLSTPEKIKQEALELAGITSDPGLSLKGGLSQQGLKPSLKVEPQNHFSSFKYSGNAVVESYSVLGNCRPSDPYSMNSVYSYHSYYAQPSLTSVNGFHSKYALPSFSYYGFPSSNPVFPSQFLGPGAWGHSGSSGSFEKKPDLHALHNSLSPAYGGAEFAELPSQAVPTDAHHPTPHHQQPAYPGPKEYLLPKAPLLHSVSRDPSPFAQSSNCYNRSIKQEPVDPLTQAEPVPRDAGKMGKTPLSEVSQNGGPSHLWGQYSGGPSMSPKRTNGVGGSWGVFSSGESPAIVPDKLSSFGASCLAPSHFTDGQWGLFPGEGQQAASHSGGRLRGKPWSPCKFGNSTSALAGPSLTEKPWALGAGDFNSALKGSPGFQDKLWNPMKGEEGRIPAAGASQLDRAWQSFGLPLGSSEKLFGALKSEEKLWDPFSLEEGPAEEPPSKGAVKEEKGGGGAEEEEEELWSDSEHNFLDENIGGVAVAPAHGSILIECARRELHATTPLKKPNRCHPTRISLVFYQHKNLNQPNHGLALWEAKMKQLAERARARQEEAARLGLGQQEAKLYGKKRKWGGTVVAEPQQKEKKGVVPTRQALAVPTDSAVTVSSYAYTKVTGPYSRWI

[1] = molecular target: T3, thrombopoietin receptor (human TPOR) (Homo sapiens, UniProt P40238); assay: STAT5 phosphorylation Western blot in parental vs human TPOR-expressing murine cells, […]; assay type: cell-based
T3 construct: gene MPL; MPL open reading frame (NM_005373.2) in pCMV-3Tag-3a, expressed in BaF3 and 32D cells
T3 sequence (P40238 26-635): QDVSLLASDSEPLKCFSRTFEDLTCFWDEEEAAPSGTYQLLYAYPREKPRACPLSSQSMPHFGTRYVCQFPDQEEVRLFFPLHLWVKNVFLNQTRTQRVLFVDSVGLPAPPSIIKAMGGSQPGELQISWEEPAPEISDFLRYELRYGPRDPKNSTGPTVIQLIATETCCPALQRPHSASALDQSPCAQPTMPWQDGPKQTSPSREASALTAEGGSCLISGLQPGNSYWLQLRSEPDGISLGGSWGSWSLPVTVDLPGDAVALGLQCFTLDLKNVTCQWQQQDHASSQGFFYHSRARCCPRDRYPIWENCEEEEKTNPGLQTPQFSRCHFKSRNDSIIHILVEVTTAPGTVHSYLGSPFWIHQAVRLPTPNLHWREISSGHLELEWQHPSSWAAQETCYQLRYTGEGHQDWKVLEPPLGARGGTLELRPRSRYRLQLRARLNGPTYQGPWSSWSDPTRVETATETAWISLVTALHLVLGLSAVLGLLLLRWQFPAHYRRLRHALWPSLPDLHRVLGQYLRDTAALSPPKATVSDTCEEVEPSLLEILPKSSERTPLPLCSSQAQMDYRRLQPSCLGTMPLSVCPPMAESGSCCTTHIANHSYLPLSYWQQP

| IC50 (TET1) | IC50 (TET3) | SMILES | STAT5 phosphorylation Western blot in parental vs human TPOR-expressing murine c [1] |
| --- | --- | --- | --- |
| 1000 ± 100 nM | 1800 ± 100 nM | CC1=NN(c2ccc(C)c(C)c2)C(=O)/C1=N\Nc1cccc(-c2cccc(C(=O)O)c2)c1O [Epag, Eltrombopag] | Reconstitution of human TPOR in murine cells restored STAT5 phosphorylation without any measurable changes in the dioxygenase activity. |
| – | – | O=C(Nc1nc(-c2cc(Cl)cs2)c(N2CCN(C3CCCCC3)CC2)s1)c1cnc(N2CCC(C(=O)O)CC2)c(Cl)c1 [Apag, avatrombopag] | a chemically unrelated non-peptidyl TPOR agonist) all activated the JAK/STAT pathway to the same extent in these cells |
